Data set [1] deals with SW1573 human lung tumor xenografts. Conditions: 30 mg/kg/day.
The subject of data set [2] is LU65 human lung tumor xenografts. The data set is described as follows: antitumor effect in mice with LU65 xenograft tumors. Particulars: 30 mg/kg/day.
Protocol: The tumor volumes and body weights of animals were recorded.
The test system of a further data set is LS180. The data set can be described thus: 3-day growth inhibition assay. The data set is classed as cell-based. Particulars: Homo sapiens; LS180 (Colon), KRAS p.G12D, PIK3CA p.H1047R, PTEN p.I67K; read-out: Growth inhibition (IC50: nmol/L). As to the method:
(§1) The IC50 values for each compound in cell lines used in a series of animal experiments evaluating the antitumor effects of Compound (1) on KRAS mutant tumor xenografts were determined by a 3-day growth inhibition assay (Table 7).

The next data set relates to SW1573. The data set is described as follows: 3-day growth inhibition assay. The data set is classed as cell-based. Conditions: Homo sapiens; SW1573 (NSCLC), KRAS p.G12C, PIK3CA p.K111E; read-out: Growth inhibition (IC50: nmol/L). As to the method: as §1
The subject of a further data set is LU65. The data set can be described thus: 3-day growth inhibition assay. The data set is classed as cell-based. Particulars: Homo sapiens, Lu-65; LU65 (NSCLC), KRAS p.G12C; read-out: Growth inhibition (IC50: nmol/L). As to the method: as §1
In data set [3] the test system is ER+/HER2− breast cancer cell lines. The data set is described as follows: immunoblotting, combination with fulvestrant, presence and absence of estrogen and NF1. The data set is classed as cell-based. Here is the method:
The actual standard of care for ER+/HER2− breast cancer uses the adjuvant therapies such as tamoxifen, letrozole, or fulvestrant. Patients with recurrent or refractory tumors are treated with additional use of CDK4/6 inhibitors or Alpelisib for PIK3CA-mutated cancers.
(Immunoblotting shows a protein as a band on a membrane.)

A further data set relates to NF1 mutant cell lines. The data set can be described thus: growth inhibition assay, summary over the panel. The data set is classed as cell-based. Particulars: range over the cell lines of Table 2; read-out: IC50 values, range over NF1 mutant cell lines. An excerpt:
(§2) In order to investigate the growth inhibitory effect of Compound (1) in NF1 mutant cancer cell lines, the IC50 values of growth inhibition assay were obtained and compared then in Table 2.
(§3) In this experiment, to compare the growth inhibitory effect of Compound (1) with those of MAPK and PI3K signaling inhibitors, the IC50 values of trametinib (as a MEK inhibitor), and Alpelisib (as a PI3K inhibitor) were obtained and compared.

The subject of data set [4] is LS180 human colorectal tumor xenografts. The data set can be described thus: antitumor effect in mice with LS180 xenograft tumors. Particulars: 1 mg/kg/day. The data set is classed as in vivo. Here is the method:
The oncogenic KRAS mutations are diverse, including not only G12C but also G12X and G13X in the mutation hotspot Glycine at […]. To determine whether Compound (1), which targets downstream of MAPK and PI3K signaling, is effective against G12D mutated cancers, an efficacy experiment of Compound (1) was conducted using subcutaneously transplanted LS180 tumor derived from colorectal cancers with KRAS G12D and PIK3CA and PTEN gene alterations.
Evaluation was conducted by comparing the efficacy of 80 mg/kg/day of Compound (1) with that of 1 mg/kg/day MEK inhibitor trametinib used as a reference group.

Data set [5] concerns AsPC-1 human pancreatic tumor xenografts. Particulars: 1 mg/kg/day.
Protocol: All treatments were administered every day by oral gavage. The tumor volumes and body weights of animals were recorded.
For another data set, the system named is MDA-MB-175VII. The data set is described as follows: growth inhibition assay, NF1 mutant cell line. Particulars: Homo sapiens, ER+ breast, NF1 p.1679Dfs*21. The data set is classed as cell-based.
Excerpt: as §2, §3

The subject of another data set is RKO. The data set is described as follows: growth inhibition assay, NF1 mutant cell line. The data set is classed as cell-based. Conditions: Homo sapiens, colon.
Excerpt: as §2, §3

Another data set concerns MeWo. The data set can be described thus: growth inhibition assay, NF1 mutant cell line. Particulars: Homo sapiens, melanoma, NF1 p.Q1336*. The data set is classed as cell-based.
Excerpt: as §2, §3

For a further data set, the system named is MDA-MB-231. The data set is described as follows: growth inhibition assay, NF1 mutant cell line. The data set is classed as cell-based. Particulars: Homo sapiens; MDA-MB-231, TN breast, NF1 p.T467Hfs*3.
Excerpt: as §2, §3

The next data set relates to BT483. The data set is described as follows: growth inhibition assay, NF1 mutant cell line. The data set is classed as cell-based. Particulars: Homo sapiens, BT-483; BT483, ER+ breast, NF1 p.R1204W.
Excerpt: as §2, §3

Another data set deals with HCT116. The data set can be described thus: growth inhibition assay, NF1 mutant cell line. The data set is classed as cell-based. Conditions: Homo sapiens, HCT-116; HCT116, colon, NF1 p.P678Rfs*10, p.P388T.
Excerpt: as §2, §3

The test system of a further data set is HCC202. The data set is described as follows: growth inhibition assay, NF1 mutant cell line. The data set is classed as cell-based. Particulars: HCC202, HER2+ breast, NF1 p.X465_splice.
Excerpt: as §2, §3

The test system of another data set is H1838. The data set can be described thus: growth inhibition assay, NF1 mutant cell line. The data set is classed as cell-based. Particulars: Homo sapiens, NCI-H1838; H1838, lung, NF1 p.N184Qfs*17.
Excerpt: as §2, §3

The test system of the next data set is AsPC-1. The data set can be described thus: 3-day growth inhibition assay. The data set is classed as cell-based. Particulars: Homo sapiens, ASPC1; AsPC-1 (Pancreas), KRAS p.G12D; read-out: Growth inhibition (IC50: nmol/L). As to the method:
as §1

Data set [6] concerns MCF7 cells (control and NF1 knockdown). The data set is described as follows: immunoblotting of target inhibition and apoptosis induction. The data set is classed as cell-based, human. As to the method:
To investigate the mechanism of action of Compound (1) in inhibiting the growth of NF1 knockdown breast cancer cells, Compound (1), trametinib, Alpelisib, and fulvestrant were exposed to NF1-knockdown MCF7 and T47D cells at indicated final concentration for 24 hours. NF1, pPRAS40 Thr246, pYB1 Ser102, pS6RP Ser235/236, ERα, and cleaved PARP were detected by immunoblotting.

Regarding `C=CC(=O)N1CCN(c2nc(=O)n(-c3c(C)ccnc3C(C)C)c3nc(-c4c(O)cccc4F)c(F)cc23)[C@@H](C)C1` [AMG510, sotorasib, reference compound], the “T/C ratio (%)” value in data set [1] (Day 15) is reported as 54%; in data set [2] (Day 13) it was 46%. For the same compound, the Number of deaths worked out at 0 in data set [1] (qd Day 1-14, po) and 0 in [2]. In [1] (qd Day 1-14, po), the “Tumor volume (mm^3) Day 15 Mean ± SE” value is given as 429.2 ± 60.2 mm^3. Further, in [2] (qd, po), the “Tumor volume (mm^3) Day 13 Mean ± SE” value came to 1067.9 ± 139.4 mm^3. Further, the figures for the IC50 with LS180, with SW1573 and with LU65 were > 10000 nmol/L, > 10000 nmol/L and 7.17 nmol/L, respectively.
As to `C[C@]12CC[C@@H]3c4ccc(O)cc4C[C@@H](CCCCCCCCC[S+]([O-])CCCC(F)(F)C(F)(F)F)[C@H]3[C@@H]1CC[C@@H]2O` (some centres unmarked) [fulvestrant], the apoptosis induction result in data set [3] (single agent, presence or absence of estrogen, NF1 wildtype and NF1 knockdown cells) is listed as “little apoptosis inducing activity”. In addition, the ER reduction entry in data set [3] (treatment with fulvestrant alone) was “ER reduction was observed clearly”.
Take `CC(=O)Nc1cccc(-n2c(=O)n(C3CC3)c(=O)c3c(Nc4ccc(I)cc4F)n(C)c(=O)c(C)c32)c1` [Trametinib]: the IC50 was ≥ 0.016 µM with NF1 mutant cell lines; 0.04 µM with MDA-MB-175VII; 0.04 µM with RKO; 0.176 µM in the data set with MeWo; > 10 µM with MDA-MB-231; > 2 µM with BT483. The IC50 in the data set on HCT116 is 0.016 µM; in the data set on HCC202, > 2 µM; with H1838 it was > 2 µM; in the data set with LS180, 9 nmol/L; in the data set on AsPC-1 it was 0.693 nmol/L; in the data set with SW1573, > 10000 nmol/L. The IC50 with LU65 amounted to 0.739 nmol/L. Moreover, the Number of deaths in data set [4] and in data set [5] was 0 each time. The “T/C ratio (%)” value in data set [4] (Day 15) was determined as 76%; in data set [5] (Day 22), 51%. Also, the “Tumor volume (mm^3) Day 15 Mean ± SE” value in data set [4] (qd Day 1-14, po) came out at 1129.3 ± 73.5 mm^3. The “Tumor volume (mm^3) Day 22 Mean ± SE” value in data set [5] (qd Day 1-21, po) was 482.5 ± 25.6 mm^3.
As for `Cc1nc(NC(=O)N2CCC[C@H]2C(N)=O)sc1-c1ccnc(C(C)(C)C(F)(F)F)c1` [Alpelisib], the IC50 in the data set with NF1 mutant cell lines was ≥ 0.179 µM; with MDA-MB-175VII, 1.09 µM; in the data set on RKO it was 2.69 µM; with MeWo, > 10 µM; in the data set on MDA-MB-231, > 10 µM; in the data set on BT483, 0.179 µM. In addition, the IC50 in the data set on HCT116 amounted to 6.34 µM; in the data set on HCC202, 0.918 µM; with H1838 it was 6.41 µM. The “apoptosis induction (cleaved PARP signal)” value in data set [6] (MCF7 NF1 knockdown cells versus control cells) is listed as “attenuated”; in [6] (MCF7 control cells (non-targeting siRNA), single agent) it was “induced apoptosis”.

The values are drawn from US20240408100A1, “TREATMENT METHODS FOR SUBJECTS HAVING CANCER WITH A DYSREGULATED MAPK AND/OR PI3K PATHWAY” (TAIHO PHARMACEUTICAL CO., LTD., priority 2021, published 2024).
